Source: PubChem BioAssay (NCI)
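Assay format: 96-well plates, 48-hour exposure. The concentration for full growth arrest is given as TGI.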

Experiments:
Assay in all cases: NCI tumour cell line growth inhibition, 48 h
UACC-257 melanoma = test system: UACC-257 melanoma
MOLT-4 leukemia = test system: MOLT-4 leukemia
MDA-MB-231 breast = test system: MDA-MB-231 breast
SN12C renal = test system: SN12C renal
IGROV1 ovarian = test system: IGROV1 ovarian
786-0 renal = test system: 786-0 renal
MDA-MB-435 = test system: MDA-MB-435
BT-549 breast = test system: BT-549 breast
DU-145 prostate = test system: DU-145 prostate
OVCAR-4 ovarian = test system: OVCAR-4 ovarian
PC-3 prostate = test system: PC-3 prostate
MCF7 breast = test system: MCF7 breast
COLO 205 colon = test system: COLO 205 colon
NCI-H460 lung = test system: NCI-H460 lung
MDA-N = test system: MDA-N
CCRF-CEM leukemia = test system: CCRF-CEM leukemia
CAKI-1 renal = test system: CAKI-1 renal
TK-10 renal = test system: TK-10 renal
RPMI-8226 leukemia = test system: RPMI-8226 leukemia
NCI-H23 lung = test system: NCI-H23 lung
EKVX NSCLC = test system: EKVX NSCLC
LOX IMVI melanoma = test system: LOX IMVI melanoma
HCT-15 colon = test system: HCT-15 colon
SK-OV-3 ovarian = test system: SK-OV-3 ovarian
M14 melanoma = test system: M14 melanoma
T-47D breast = test system: T-47D breast
SNB-19 CNS = test system: SNB-19 CNS
K-562 leukemia = test system: K-562 leukemia
OVCAR-8 ovarian = test system: OVCAR-8 ovarian
SF-295 CNS = test system: SF-295 CNS
HOP-92 NSCLC = test system: HOP-92 NSCLC
ACHN renal = test system: ACHN renal
SK-MEL-28 melanoma = test system: SK-MEL-28 melanoma
OVCAR-3 ovarian = test system: OVCAR-3 ovarian
NCI/ADR-RES ovarian = test system: NCI/ADR-RES ovarian
SNB-75 CNS = test system: SNB-75 CNS
U251 CNS = test system: U251 CNS
SW-620 colon = test system: SW-620 colon
SF-268 CNS = test system: SF-268 CNS
HCC-2998 colon = test system: HCC-2998 colon
HOP-62 NSCLC = test system: HOP-62 NSCLC
SK-MEL-2 melanoma = test system: SK-MEL-2 melanoma
RXF 393 renal = test system: RXF 393 renal
NCI-H522 lung = test system: NCI-H522 lung
OVCAR-5 ovarian = test system: OVCAR-5 ovarian
HCT-116 colon = test system: HCT-116 colon
UACC-62 melanoma = test system: UACC-62 melanoma
HS 578T breast = test system: HS 578T breast
NCI-H226 lung = test system: NCI-H226 lung
MALME-3M melanoma = test system: MALME-3M melanoma
SF-539 CNS = test system: SF-539 CNS
HL-60(TB) leukemia = test system: HL-60(TB) leukemia
A549 NSCLC = test system: A549 NSCLC
SR leukemia = test system: SR leukemia
KM12 colon = test system: KM12 colon
UO-31 renal = test system: UO-31 renal
HT29 colon = test system: HT29 colon
SK-MEL-5 melanoma = test system: SK-MEL-5 melanoma
A498 renal = test system: A498 renal

CC(=O)OCC1OC(OC2CC3C(C)(C)C(=O)CC[C@]3(C)C3CC[C@]45C[C@]4(CCC5[C@@H](C)CC(O)C(O)C(C)(C)O)[C@]23C)C(O)C(O)C1O (some centres undefined)
TGI (UACC-257 melanoma): 23.6 µM
TGI (MOLT-4 leukemia): 15.6 µM
TGI (MDA-MB-231 breast): 19.5 µM
TGI (SN12C renal): 26.4 µM
TGI (IGROV1 ovarian): 23.2 µM
TGI (786-0 renal): 26.5 µM
TGI (MDA-MB-435): 21.2 µM
TGI (BT-549 breast): 25.9 µM
TGI (DU-145 prostate): 30.9 µM
TGI (OVCAR-4 ovarian): 25.7 µM
TGI (PC-3 prostate): 21.5 µM
TGI (MCF7 breast): 16.7 µM
TGI (COLO 205 colon): 18.5 µM
TGI (NCI-H460 lung): 27.1 µM
TGI (MDA-N): 22.7 µM
TGI (CCRF-CEM leukemia): 16.7 µM
TGI (CAKI-1 renal): 31.1 µM
TGI (TK-10 renal): 28.1 µM
TGI (RPMI-8226 leukemia): 17.2 µM
TGI (NCI-H23 lung): 32.7 µM
TGI (EKVX NSCLC): 29.9 µM
TGI (LOX IMVI melanoma): 12.6 µM
TGI (HCT-15 colon): 31.4 µM
TGI (SK-OV-3 ovarian): 28.9 µM
TGI (M14 melanoma): 22.2 µM
TGI (T-47D breast): 18.8 µM
TGI (SNB-19 CNS): 23.3 µM
TGI (K-562 leukemia): 21.7 µM
TGI (OVCAR-8 ovarian): 26.5 µM
TGI (SF-295 CNS): 27.1 µM
TGI (HOP-92 NSCLC): 13.7 µM
TGI (ACHN renal): 30 µM
TGI (SK-MEL-28 melanoma): 12.6 µM
TGI (OVCAR-3 ovarian): 25.4 µM
TGI (NCI/ADR-RES ovarian): 32.8 µM
TGI (SNB-75 CNS): 18.8 µM
TGI (U251 CNS): 20.3 µM
TGI (SW-620 colon): 26 µM
TGI (SF-268 CNS): 21.8 µM
TGI (HCC-2998 colon): 21.7 µM
TGI (HOP-62 NSCLC): 33.8 µM
TGI (SK-MEL-2 melanoma): 17.1 µM
TGI (RXF 393 renal): 21.9 µM
TGI (NCI-H522 lung): 22.7 µM
TGI (OVCAR-5 ovarian): 30.8 µM
TGI (HCT-116 colon): 20 µM
TGI (UACC-62 melanoma): 22.5 µM
TGI (HS 578T breast): 24.5 µM
TGI (NCI-H226 lung): 30.6 µM
TGI (MALME-3M melanoma): 27.5 µM
TGI (SF-539 CNS): 28.8 µM
TGI (HL-60(TB) leukemia): 5.05 µM
TGI (A549 NSCLC): 31.6 µM
TGI (SR leukemia): 16.9 µM
TGI (KM12 colon): 19.1 µM
TGI (UO-31 renal): 32.2 µM
TGI (HT29 colon): 16.7 µM
TGI (SK-MEL-5 melanoma): 20.3 µM

Cc1ccc(S(=O)(=O)N/N=C2/CC[C@H](C(C)(C)C)C[C@@H]2C)cc1
TGI (UACC-257 melanoma): 27 µM
TGI (MOLT-4 leukemia): 31.1 µM
TGI (MDA-MB-231 breast): 43.7 µM
TGI (SN12C renal): 30.4 µM
TGI (IGROV1 ovarian): 30 µM
TGI (786-0 renal): 31.8 µM
TGI (MDA-MB-435): 32.7 µM
TGI (BT-549 breast): 29.8 µM
TGI (DU-145 prostate): 30.3 µM
TGI (OVCAR-4 ovarian): 20 µM
TGI (PC-3 prostate): 36.8 µM
TGI (MCF7 breast): 32.8 µM
TGI (COLO 205 colon): 35.4 µM
TGI (NCI-H460 lung): 32.2 µM
TGI (MDA-N): 34.3 µM
TGI (CCRF-CEM leukemia): 38.8 µM
TGI (CAKI-1 renal): 26.3 µM
TGI (TK-10 renal): 30.4 µM
TGI (RPMI-8226 leukemia): > 100 µM
TGI (NCI-H23 lung): 36.8 µM
TGI (EKVX NSCLC): 32.2 µM
TGI (LOX IMVI melanoma): 27.9 µM
TGI (HCT-15 colon): 32.7 µM
TGI (SK-OV-3 ovarian): 36.6 µM
TGI (M14 melanoma): 26.6 µM
TGI (T-47D breast): 25.5 µM
TGI (SNB-19 CNS): 32.6 µM
TGI (K-562 leukemia): 42.1 µM
TGI (OVCAR-8 ovarian): 29.9 µM
TGI (SF-295 CNS): 29.2 µM
TGI (HOP-92 NSCLC): 33.4 µM
TGI (ACHN renal): 30.3 µM
TGI (SK-MEL-28 melanoma): 32.8 µM
TGI (OVCAR-3 ovarian): 25.2 µM
TGI (NCI/ADR-RES ovarian): 31.2 µM
TGI (SNB-75 CNS): 39 µM
TGI (U251 CNS): 33.5 µM
TGI (SW-620 colon): 50.7 µM
TGI (HCC-2998 colon): 33.5 µM
TGI (HOP-62 NSCLC): 26.9 µM
TGI (SK-MEL-2 melanoma): 32.4 µM
TGI (OVCAR-5 ovarian): 32.5 µM
TGI (HCT-116 colon): 29.3 µM
TGI (UACC-62 melanoma): 31.4 µM
TGI (HS 578T breast): 45.1 µM
TGI (NCI-H226 lung): 28.3 µM
TGI (MALME-3M melanoma): 29.8 µM
TGI (SF-539 CNS): 32.5 µM
TGI (HL-60(TB) leukemia): > 100 µM
TGI (A549 NSCLC): 33.4 µM
TGI (SR leukemia): > 100 µM
TGI (KM12 colon): 49.7 µM
TGI (UO-31 renal): 26.6 µM
TGI (HT29 colon): 30.7 µM
TGI (SK-MEL-5 melanoma): 26.8 µM
TGI (A498 renal): 31.6 µM
